From US20120322843A1, “GENOTYPE SPECIFIC METHODS FOR TREATING HUMAN SUBJECTS USING 4-METHYLPYRAZOLE” (RAPTOR THERAPEUTICS INC., priority 2009, published 2012) come the findings set out here.

The subject of this experiment is human subjects with reduced or absent ALDH2 activity. The experiment can be described thus: Blinded, intra-subject controlled, single dose study of oral 4-MP given before ethanol; serum acetaldehyde measured by HPLC/MS/MS and compared by ALDH2/ADH2 genotype. The experiment is classed as in vivo. The procedure: A blinded, intra-subject controlled, single dose, dose escalation study of 4-MP for mitigation of acetaldehyde related toxicity in subjects with symptoms of inborn altered ethanol metabolism with concomitant ethanol exposure was undertaken.
Twenty-four subjects (n=24) were randomly selected and orally administered 1 mg/kg, 3 mg/kg, or 5 mg/kg of 4-MP, followed 30 minutes later by an oral dose of 20% ethanol ([…]).
Using the same protocol, wherein 4-MP was replaced with placebo, each of the twenty-four randomly selected subjects served as its own control.
The twenty-four randomly selected subjects were then subjected to blood sampling, and the sampled blood analyzed for acetaldehyde levels at select time points following ethanol consumption.
For acetaldehyde analysis, blood samples were prepared by dilution with an internal standard (acetaldehyde-d4), with derivatization of acetaldehyde with dinitrophenyl hydrazine in hydrochloric acid, liquid-liquid portioning and solvent exchange. The derivatization forms an acetaldehyde-dinitrophenyl hydrazine (DNPH) derivative which dramatically increases the boiling point of the molecule and thus its relative stability compared to the acetaldehyde itself (Nagy et al., Rapid Communications in Mass Spectrometry 2004, 18, 2473-2478). The derivatized analytes were separated using a Jones Chromatography (Grace-Vydac). 50 mm×2.1 mm, 3 μm column held in an oven set at 28° C. Two mobile phases were used in a gradient consisting of 30:70 acetonitrile:water versus 90:10 acetonitrile:water with 0.1% formic acid. The derivatized analyte was detected on a High Performance Liquid Chromatograph equipped with a Mass Spectrometer (HPLC/MS/MS). Quantitation was performed using a linear regression curve fit of impurities standards with 1/× weighting, prepared from dilutions of acetaldehyde in water. Samples and standards were injected at 2 μL.
All […] subjects were then genotyped for ALDH2 and ADH2 at the Alcohol Research Center at Indiana University using (i) genomic DNA isolation and (ii) TaqMan assay for allelic discrimination. • i. Genomic DNA isolation: DNA was first isolated using the “Hot:SHOT” method for isolating PCR quality genomic DNA (Truett et al., Biotechniques 2000, 29(1), 52, 54). Briefly, blood blotted on filter paper (3 mm circle) was placed in the well of a 96-well plate and mixed with 75 μL 25 mM NaOH/0.3 mM EDTA solution and heated to 95° C. for 40 minutes, followed by neutralization with 75 μL 40 mM Tris-HCl ([…]) solution. 1-5 microliters were used for each PCR. • ii. TaqMan Assay for Allelic Discrimination: The allelic discrimination assay used a multiplexed (more than one primer/probe pair per reaction), end-point (data is collected at the end of the PCR process) assay. Each assay mix contained two different TaqMan probes (Applied BioSystems, Foster City, Calif.), labeled with VIC or FAM fluorescent reporter dye, which bound preferentially to one of the alleles. The genotype of each sample was determined by the fluorescence levels of the reporter dyes and was clustered on a graph with other samples of the same genotype. Each reaction contained 5 μL of 2×TaqMan Universal PCR Mastermix, No AmpErase UNG, 3.75 μL of water, 0.25 μL, of 40× Assay Mix, and 1 μL of DNA sample. Eight or eleven controls were included on each 96-well plate: two no template controls, two or three heterozygous samples, and two or three of each of the homozygous samples. Thermocycling was carried out in ND Research PTC-200 thermocyclers. The PCR products were then analyzed in an ABI PRISM® 7300 Sequence Detection System (SOS) instrument. SDS Software 1.3.1 converted the raw data to pure dye components and ploted the results of the allelic discrimination on a scatter plot of Allele X versus Allele Y (e.g. ADH2*1 versus ADH2*2); each genotype appeared on the graph as a cluster of points. […]

[1] abbreviates: Groups A and D (reduced ALDH2 activity, ADH2*1/ADH2*1 or ADH2*1/ADH2*2), n=6, 1 mg/kg 4-MP oral, then ethanol.
The mark [2] stands for this setting: Groups A, B, D, F and G (reduced or absent ALDH2 activity), n=23, 1, 3 or 5 mg/kg 4-MP.
Setting [3] is: Groups F and G (reduced or absent ALDH2 activity, ADH2*2/ADH2*2), n=6, 1 mg/kg 4-MP oral, then ethanol.

Where “and” joins values, the source holds several entries; their conditions need not be identical. Identical values can stand only once.

For the compound `Cc1cn[nH]c1` [4-MP, 4-methylpyrazole], the “Acetaldehyde AUC0-8H mean” value is 162 ± 18.7 µg·h/mL and 162 µg·h/mL under setting [1]; 182 µg·h/mL under setting [2]; 221 µg·h/mL under setting [3]. The “Cmax mean (serum acetaldehyde)” value under setting [1] amounted to 41.3 µg/mL, the “Cmax mean (serum acetaldehyde)” value under setting [2] came to 64.2 µg/mL and the “Cmax mean (serum acetaldehyde)” value under setting [3] worked out at 89.2 µg/mL. The “Peak mean acetaldehyde concentration in the blood (FIG. 2)” value (Groups A and D, 1 mg/kg 4-MP) is on record as “can be reduced”. Also, the “Reduction in Cmax mean relative to placebo” value (Groups A and D, 1 mg/kg 4-MP) was “approximately 36%”. Also, the “Peak mean acetaldehyde concentration in the blood (FIG. 3)” value (Groups F and G (ADH2*2/ADH2*2), 1 mg/kg 4-MP) is “not reduced”. Moreover, for the setting “all subjects with reduced or absent ALDH2 activity, 1, 3 or 5 mg/kg 4-MP”, the “Peak mean acetaldehyde concentration in the blood (FIG. 4)” value was “not reduced”.
